Assay [1] relates to in vitro self-assembled nuclei. As to the kind of experiment: Cell-free apoptosis assay: nuclei assembled in Xenopus egg extracts with sperm chromatin. Also on record: species or system Xenopus laevis. On the procedure: A cell-free assay for assessing Bcl-2 function was developed to rapidly screen compounds for ability to inhibit or enhance Bcl-2 protein function. The assay utilizes in vitro self-assembled nuclei generated by mixing cell extracts derived from Xenopus laevis eggs with isolated sperm chromatin. The nuclei assemble normally but, after about 2 hours, begin to disintegrate. The nuclei appeared contracted and had the same appearance as isolated nuclei that had been treated briefly with an endonuclease. This phenomenon appears to represent apoptosis. Alternatively, isolated hepatocyte nuclei can be substituted for sperm chromatin and mixed with the egg extracts, resulting in the same phenomenon.
To test the effect of Bcl-2 protein on nuclei, lysates were prepared from Sf9 insect cells infected with recombinant baculoviruses encoding either Bcl-2 or an irrelevant protein such as β-galactosidase (β-gal) or the Lck kinase (see Reed et al., Anal. Biochem. 205:70-76 (1992). To confirm that Bcl-2 was expressed in the insect cell lysates, Sf9 insect cells were infected with recombinant Bcl-2 baculovirus or recombinant Lck baculovirus vectors. Infected cells were incubated for three days to allow expression of the gene products, then lysates were obtained and fractionated by SDS-PAGE electrophoresis. Following electrophoresis, proteins were transferred to membrane and probed with an antiserum raised against a synthetic peptide corresponding to part of the predicted amino acid sequence of human Bcl-2. […] Bcl-2 protein comprised about 5-10% of the total extracted protein.
Sf9 cell lysates were added at a 1:90 dilution into the Xenopus extracts or to a final protein concentration of 10 μg/ml (see Newmeyer and Wilson, Meth. Cell Biol. 36:607-634 (1991), which is incorporated herein by reference). […] After about another 40 min of incubation, the nuclei had disintegrated completely (FIG. 9B) and a generally dispersed filamentous background of Hoechst fluorescence remained along with many small spherical or irregularly shaped aggregates of chromatin (not shown). […]

The test system of assay [2] is 32D-3 cells. As to the kind of experiment: Viability of stably transfected 32D-3 cells in culture (trypan blue exclusion). Type of assay: cell-based. To be noted: cells expressing the protein, followed over days in culture, versus Neo control. The source says:
FIG. 2A. Cell viability as determined by trypan blue exclusion (mean +/− standard deviation of 3 determinations). W.T., wild-type Bcl-2; P59S, mutant Bcl-2; Neo, control.
32D-3 cells were stably transfected with expression plasmids containing a G418 antibiotic resistance gene and either a wild-type or mutant human Bcl-2 DNA sequence. The mutant Bcl-2 sequence encodes a variant Bcl-2 protein having a serine substitution for a proline at amino acid position 59 (BCL2/P59S). This amino acid substitution results in a high level of constitutive expression of BCL2/P59S.
Following selection of the cells for G418 resistance, cells were plated and their viability was determined.

A further assay has as its system AT-3 cells. As to the kind of experiment: Sindbis virus-induced death of AT-3 prostate cancer cells (trypan blue exclusion). Format: cell-based, rat. As to conditions: AT-3 cells infected with pZIP-BCL2, grown with Sindbis virus. The text has this:
FIG. 3. Bcl-2 blocks prostate cancer cell line, AT-3, death induced by Sindbis virus infection. Cell viability as determine by trypan blue exclusion (mean +/− standard deviation of 3 determinations). pZIP-BCL2 or pZIP-NEO are described in FIG. 1B. AT-3-NEO control cells (circles); AT-3-BCL2 cells (squares). Virus infected cells (solid symbols); cells cultured in the absence of virus (open symbols).
A rat prostate cancer cell line, AT-3, was infected with pZIP-BCL2 or pZIP-NEO (see FIG. 1B), then grown in the presence or absence of Sindbis virus. At various times after the addition of Sindbis virus, cells were collected and cell viability was determine using trypan blue exclusion.

A further assay relates to PC12 cells. Description: Glutamate-induced death of PC12 cells (MTT dye reduction assay). Format: cell-based, rat. As to conditions: PC12 cells infected with pZIP-BCL-2; 30 mM glutamate, 24 hours. As to the method: FIG. 4. Protection of PC12 cells from glutamate-induced death by Bcl-2. Cell viability as determined by MTT dye reduction assay (mean +/− standard deviation of 3 determinations).
The rat pheochromocytoma cell line, PC12, was stably infected with pZIP-BCL-2 or pZIP-NEO (see FIG. 1B), then treated with 30 mM glutamate for 24 hours. Following treatment, cell viability was assessed by MTT dye reduction assay as described in Tada et al., J. Immunol. Meth. 93:157-165 (1986).

The subject of assay [3] is 32D-3 cells. Description: Survival of transfected 32D-3 cells cultured without growth factor. Type of assay: cell-based. To be noted: 32D-3 cells expressing the protein, growth factor deprivation. The text has this:
FIGS. 5A and 5B. Homologs of Bcl-2 prolong survival of 32D-3 cells grown in the absence of Il-3 for various times. Cell viability as determined by the trypan blue exclusion (mean +/− standard deviation of 3 determinations).
FIGS. 6A to 6C. Bcl-2 acts synergistically with Raf-1 to prolong cell survival under conditions of growth factor deprivation. Bcl-2 protein, alone (open circles); activated Raf-1 protein, alone (squares); Bcl-2+Raf-1 proteins (closed circles); no Bcl-2 or Raf-1 protein (triangles).
FIG. 7. A dominant-negative form of the Bcl-2 protein, Bcl-2β, accelerates cell death. Cell viability as determined by trypan blue exclusion. […]
32D-3 cells were stably transfected with expression plasmids containing either a hygromyin (HYG) or a G418 (NEO) antibiotic resistance gene and cDNA encoding either the human Bcl-2 protein, the chicken Bcl-2 protein or the BHRF-1 protein from Epstein Barr Virus (viral homolog of Bcl-2). […] Following transfection, cells were cultured without growth factor for various times and the number of viable cells was determined.
32D-3 cells were stably transfected with expression plasmids producing Bcl-2 protein, activated Raf-1 protein or both Bcl-2 and Raf-1, then cultured under conditions of growth factor deprivation that cause apoptosis. At various times after removing the growth factor from the medium, cells were collected and viability was determined. […]

Consider “Bcl-2: about 26 kDa protein that promotes cell survival by blocking apoptosis; expressed by gene transfer or added as Sf9 lysate”, for which the “intact, transport-competent nuclei” value in assay [1] (after 2 hours of incubation, Bcl-2-containing Sf9 lysate added to Xenopus extract) is recorded as “about 50%”. Also, the “nuclei remaining intact and transport-competent” value in assay [1] (after two hours and forty min incubation, Bcl-2-containing Sf9 lysate) was determined as 42%. In assay [1] (in one hour, Bcl-2-containing lysate), the “amount of fluorescent transport substrate imported by nuclei” value is recorded as “no gross changes”. In the assay with 32D-3 cells [2], the “number of viable cells in culture” value is on record as “did not decrease during the time examined”. In addition, in the assay on AT-3 cells, the “protection from Sindbis virus-induced cell death” value is listed as “protected from Sindbis virus-induced death”. In addition, in the assay with PC12 cells, the “protection from glutamate-induced cell death” value is “protected the PC12 cells from glutamate-induced death”. Besides, the “cell viability / survival without growth factor” value with 32D-3 cells [3] was “modest effect”.

B1: chicken Bcl-2: chicken Bcl-2 homolog expressed from cDNA in 32D-3 cells (protein, UniProt Q00709 1-233, looked up)
Apoptosis regulator Bcl-2: MAHPGRRGYDNREIVLKYIHYKLSQRGYDWAAGEDRPPVPPAPAPAAAPAAVAAAGASSHHRPEPPGSAAASEVPPAEGLRPAPPGVHLALRQAGDEFSRRYQRDFAQMSGQLHLTPFTAHGRFVAVVEELFRDGVNWGRIVAFFEFGGVMCVESVNREMSPLVDNIATWMTEYLNRHLHNWIQDNGGWDAFVELYGNSMRPLFDFSWISLKTILSLVLVGACITLGAYLGHK
B1: in the assay with 32D-3 cells [3], the “cell viability / survival without growth factor” value is recorded as “nearly as effective as the human Bcl-2”.

The values above are taken from patent US6514761B1, “Methods of using BCL-2 for the therapeutic treatment and prevention of diseases” (The Burnham Institute, priority 1993, dated 2003).
